Experimental findings from article PMC10587126, “Molecular hybridization strategy for tuning bioactive peptide function” (Communications Biology, 2023) are described below.

A short description of series [1]: Resistance to proteolytic degradation in fetal bovine serum. The series is classed as in vitro ADME. The note with it: 25% fetal bovine serum in water, 37 °C. The protocol: Stability assays were performed following the protocol described by Torres et al.[67]. Briefly, a peptide solution was added to GIBCO fetal bovine serum diluted to 25% in water and kept at 37 °C. The degradation kinetics were monitored by liquid chromatography and the percentage of peptide remaining in each case was calculated by integrating the peptide peak area. These experiments were performed as three independent replicates, and aliquots were taken at 0, 0.5, 1, 2, 4, and 6 h.

Series [2] in a line: Mouse body weight in the skin abscess infection model. The series is classed as in vivo. The protocol: The anti-infective activity of the peptides VmCT1, temporin A, VT, and TV against A. baumannii ATCC 19606 was evaluated as described by Torres et al.[7],[83] Bacteria were grown in tryptic soy broth medium to an optical density of 0.5 at 600 nm. Cells were washed twice with sterile phosphate-buffered saline (pH 7.4, 13,000 rpm for 1 min) and resuspended to a final concentration of 1 × 10^7 CFU/20 μL. To generate the skin infection, female CD-1 mice (6-weeks-old) were first anesthetized with isoflurane and their backs were shaved. Using a needle, a superficial linear abrasion was made on the shaved area of the mice to injure just the stratum corneum and the upper layer of the epidermis. An aliquot of 20 μL containing 1 × 10^7 CFU of A. baumannii was then inoculated over the wound area with a pipette tip. The next day, the infected area was treated with the peptides (i.e., VmCT1, temporin A, VT, and TV), which were administered onto the abscess at their MIC. The animals were euthanized, and the scarified skin area removed 2- and 4-days post-infection. The excised area was homogenized using a bead beater for 20 min (25 Hz) and serially diluted for CFU quantification. Eight mice were used per group (n = 8). All experiments were performed in accordance with protocol 806763 approved by the IACUC at the University of Pennsylvania.

Series [3] is described as follows: Skin tissue histopathological analysis (H&E). The format is in vivo, mouse. The settings on record: H&E staining, tissue collected 24 h after infection and treatment, three mice per condition. The method, then: The fur on the back of the mice was removed and the mice were infected and treated as described in the Skin abscess infection mouse model section. After 24 h, mice were euthanized for tissue collection. Samples were pre-fixed in individual cassettes, then transferred to a container filled with 70% ethanol (EtOH) for slicing and staining. Next, the samples were placed on glass slides for microscopy analysis. We collected the tissue from three mice per condition analyzed.

For series [4], the system named is Pseudomonas aeruginosa PAO1. Briefly: Broth microdilution MIC, ESKAPE pathogens. The series is classed as cell-based. The note with it: strain not given (PAO1 and PA14 tested), LB, 37 °C, 24 h. The method, then: Peptides were tested in antimicrobial assays against Serratia marcescens ATCC 4112, Enterobacter cloacae β-12, Micrococcus luteus A270, Bacillus megaterium ATCC 10778, Bacillus subtilis ATCC 6633, Candida albicans MDM8, Candida tropicalis IOC 4560, Acinetobacter baumannii ATCC 19606, Escherichia coli ATCC 11775, Escherichia coli AIC221, Escherichia coli AIC222, Klebsiella pneumoniae ATCC 13883, Staphylococcus aureus ATCC 12600, Pseudomonas aeruginosa PAO1, and Pseudomonas aeruginosa PA14. All microorganisms were obtained from the American Type Culture Collection (ATCC), Instituto Butantan, São Paulo, Brazil, and the clinical isolate strains were donated from the Oswaldo Cruz Institute Collection (IOC), Rio de Janeiro, Brazil.
The minimal inhibitory concentration (MIC) against the ESKAPE pathogens was determined using the broth microdilution method[7] in Luria-Bertani (LB) medium. The MIC value was defined as the lowest concentration of peptide at which no microbial growth was observed. A. baumannii ATCC 19606, E. coli ATCC 11775, E. coli AIC221, E. coli AIC222, K. pneumoniae ATCC 13883, S. aureus ATCC 12600 P. aeruginosa PAO1, and P. aeruginosa PA14 were incubated on agar plates, and after 24 h, three isolated colonies were inoculated to 5 mL of Luria-Bertani (LB) broth and maintained at 37 °C overnight with shaking. Peptides were then added to 96-well polystyrene microtiter plates at concentrations ranging from 0 to 128 μmol L^−1, and 5 × 10^5 CFU mL^−1 of each bacterium was inoculated in each well. The plates were incubated at 37 °C for 24 h. Bacterial growth was measured using a microplate reader at 610 nm. Three independent replicates were performed.

The subject of series [5] is human erythrocytes. Briefly: Hemolytic activity. The format is cell-based. The note with it: 0.1–100 μmol L^−1 in PBS, room temperature, 1 h, absorbance 405 nm. The protocol:
Assays against freshly collected human erythrocytes were performed following protocols described by Pedron et al.[54]. Briefly, peptide aliquots at concentrations ranging from 0.1 to 100 μmol L^−1 were incubated with a suspension of erythrocytes at room temperature for 1 h. The samples were then centrifuged, and the absorbance of the supernatant was measured at 405 nm. […] The surfactant SDS and PBS buffer were used as positive[81],[82] and negative controls, respectively. Sodium heparin was used as an anticoagulant when collecting human blood. Three biological repeats were performed. All experiments were performed in accordance with the protocol CEUA/IB #I-1345/15 approved by the Instituto Butantan.

In series [6] the test system is MCF-7 human breast cancer cells. Briefly: MTT assay, anticancer activity. The format is cell-based. The settings on record: 37 °C. The protocol:
The anticancer activity assays were performed using MCF-10A human breast epithelial cells and MCF-7 mammary cancer cells as previously described by Pedron et al.[78]. Briefly, the day before treatment, the cells were incubated at 37 °C and 5% CO2 for 24 h. The cells were treated with peptides ranging from 12.5 to 100 μmol L^−1 (MCF10-A cells) and 0.8 to 100 μmol L^−1 (MCF-7 cells) for 4 h and 24 h at 37 °C, and cell viability was measured using 3-(4,5-Dimethylthiazol-2-yl)-2,5-diphenyltetrazolium bromide (MTT) assays[79],[80]. Three independent replicates were performed in each case.
In general terms: Tetrazolium assays rely on reduction of a dye to a coloured formazan, in cell work by metabolically active cells.

The mark [7] stands for this setting: LC peak area, time 0 = 100, 0.5 h, replicate 1.
[8] abbreviates: LC peak area, time 0 = 100, 0.5 h, replicate 2.
Setting [9] is: LC peak area, time 0 = 100, 0.5 h, replicate 3.
The mark [10] stands for this setting: LC peak area, time 0 = 100, 1 h, replicate 1.
[11] abbreviates: LC peak area, time 0 = 100, 1 h, replicate 2.
[12] abbreviates: LC peak area, time 0 = 100, 1 h, replicate 3.
Where [13] appears, read: LC peak area, time 0 = 100, 2 h, replicate 1.
Setting [14] is: LC peak area, time 0 = 100, 2 h, replicate 2.
Setting [15] is: LC peak area, time 0 = 100, 2 h, replicate 3.
[16] abbreviates: LC peak area, time 0 = 100, 4 h, replicate 1.
[17] abbreviates: LC peak area, time 0 = 100, 4 h, replicate 2.
Where [18] appears, read: LC peak area, time 0 = 100, 4 h, replicate 3.
The mark [19] stands for this setting: LC peak area, time 0 = 100, 6 h, replicate 1.
Where [20] appears, read: LC peak area, time 0 = 100, 6 h, replicate 2.
Where [21] appears, read: LC peak area, time 0 = 100, 6 h, replicate 3.

By fraction remaining is commonly meant what is left of the initial amount, in per cent.

No end group written: not given here.

For “FLGALWNVAKSVF-NH2 [VmCT1, reference compound]”, the Peptide remaining in series [1] (setting [7]) is reported as 28.5; in series [1] (setting [8]), 24.4; in series [1] (setting [9]), 26.5; in series [1] (setting [10]), 6.3; in series [1] (setting [11]), 8.5; in series [1] (setting [12]), 7.4. Besides, the Peptide remaining in series [1] (setting [13]) was determined as 10.5; in series [1] (setting [14]), 13.9; in series [1] (setting [15]) it was 11.9; in series [1] (setting [16]), 0.0; in series [1] (setting [17]), 0.0; in series [1] (setting [18]), 0.0. Moreover, the Peptide remaining in series [1] (setting [19]), in series [1] (setting [20]) and in series [1] (setting [21]) was 0.0 throughout. The “Mouse body weight, normalized to the weight at the beginning of the experiment” value is recorded as 90 in series [2] (day 0 = 100, Day 1, replicate 1); 100 in series [2] (day 0 = 100, Day 1, replicate 2); 105 in series [2] (day 0 = 100, Day 1, replicate 3); 90 in series [2] (day 0 = 100, Day 2, replicate 1); 95 in series [2] (day 0 = 100, Day 2, replicate 2); 100 in series [2] (day 0 = 100, Day 2, replicate 3). The “Mouse body weight, normalized to the weight at the beginning of the experiment” value in series [2] (day 0 = 100, Day 3, replicate 1) is reported as 95; in series [2] (day 0 = 100, Day 3, replicate 2), 100; in series [2] (day 0 = 100, Day 3, replicate 3) it was 105; in series [2] (day 0 = 100, Day 4, replicate 1) it was 90; in series [2] (day 0 = 100, Day 4, replicate 2), 100; in series [2] (day 0 = 100, Day 4, replicate 3), 100. Also, in series [3], the “Histopathological effect on skin tissue (in words)” value is on record as “Neither TV nor VmCT1 changed the tissue’s morphology”.

With ILGAILNVLKSLG-NH2 [PV], in series [4], the “MIC against P. aeruginosa” value is 128 µM. Besides, the “Hemolytic activity (concentration of peptide needed to kill 10% of red blood cells)” value in series [5] was found to be 25 µmol/L. The “Peptide remaining after 1 h” value in series [1] (LC peak area vs time 0, 1 h, three replicates) was “totally degraded”. The Peptide remaining in series [1] (setting [7]) was determined as 98; in series [1] (setting [8]), 85; in series [1] (setting [9]), 88; in series [1] (setting [10]) it was 0; in series [1] (setting [11]), 0; in series [1] (setting [12]), 0. For the same substance, the Peptide remaining in series [1] (setting [13]), in series [1] (setting [14]), in series [1] (setting [15]), in series [1] (setting [16]), in series [1] (setting [17]) and in series [1] (setting [18]) was 0 in each case. The Peptide remaining in series [1] (setting [19]), in series [1] (setting [20]) and in series [1] (setting [21]) was 0 throughout.

Consider “ILGTILGLLKGL-NH2 [Protonectin, reference compound]”, for which the “MIC against P. aeruginosa” value in series [4] was determined as 128 µM. Moreover, the “MCF-7 4 h LD50” value in series [6] (4 h of incubation) is 25 µmol/L. Moreover, the “MCF-7 24 h LD50” value in series [6] (24 h of incubation) turned out to be 25 µmol/L. Moreover, in series [5], the “Hemolytic activity (concentration of peptide needed to kill 10% of red blood cells)” value came to 12.5 µmol/L. In addition, the Peptide remaining in series [1] (setting [7]), in series [1] (setting [8]), in series [1] (setting [9]), in series [1] (setting [11]), in series [1] (setting [12]) and in series [1] (setting [13]) was 0.0 throughout. In addition, the Peptide remaining in series [1] (setting [14]), in series [1] (setting [15]), in series [1] (setting [16]), in series [1] (setting [17]), in series [1] (setting [18]) and in series [1] (setting [19]) was 0.0 throughout. Also, the Peptide remaining in series [1] (setting [20]) and in series [1] (setting [21]) was 0.0 each time. Also, the “Degradation in fetal bovine serum (in words)” value in series [1] (exposure for 6 h, LC) is reported as “quickly degraded”. For the same substance, the share remaining at 1 h in series [1] (fetal bovine serum, 25% in water, LC peak area, time 0 = 100, 1 h, replicate 1, read-out: Peptide remaining) amounted to 0%.
